Source: patent US8318146B1, “Ascarosides as nematode sex pheromones” (The United States of America, as represented by the …, priority 2008, dated 2012)

Key:
[1] = tested on: adult male Caenorhabditis elegans; test: Caenorhabditis mating assay (male attraction, time spent in scoring region); format: in vivo; conditions: for activity in the attraction assay: 0 to 10000 fmol range; for male attraction activity, each ascaroside tested individually at physiological concentrations: 0 to 10 fmol for ascr#3, 0 to 100 fmol for ascr#2; for male attraction when assayed individually: 10 fmol ascr#3, 100 fmol ascr#2; for shape of dose-response curve: 0.1 fmol to 10,000 fmol (FIG. 4); for male attraction activity at higher concentrations: above the physiological range
Protocol: Wild-type C. elegans var. N2 Bristol and males from the CB1490 him-5(e1490) mutant were utilized in bioassays. The him-5(e1490) mutant segregates XO male progeny by X chromosome nondisjunction during meiosis. All strains were maintained at 20° C. unless detailed otherwise.
Standard nematode growth medium plates (5 cm diameter) were used for assaying biological activity of the nematode conditioned water. The assay plates comprised of a thin lawn of an overnight grown E. coli OP50 culture with an approximate 0.25 cm gap between the bacterial lawn and the edge of the plate to prevent the nematodes from escaping. Plates were stored at room temperature (20° C.) for two days before being used in trials. Two spots (5 mm in diameter) were spotted 1.6 cm apart from each other on a template and stuck to the bottom of the assay plate. 0.8 μl of the control and the nematode metabolite were placed in the two circles and allowed to dry for approximately 30 seconds. To remove any bias, control and conditioned water spots were interchanged after every trial. Males and hermaphrodites were harvested daily at the fourth larval stage (L4) and stored at 20° C. overnight with 50-60 nematodes of the same sex per plate to be used as young adults the following day. Five nematodes were placed at approximately 1.0 cm away on each side (10 nematodes total) from the spots and allowed to acclimatize for 5 minutes. Trials were videotaped at 30 frames per second for 15 minutes using the Fire-i Unibrain software. For each sample, a minimum of 4-5 trials were conducted each day and each stage was tested on at least three different days.
Each time a nematode entered and left the scoring region it was scored as a nematode event. The time the nematode entered the scoring region and left the scoring region was recorded. Once inside the scoring region, the average time spent by each nematode was noted and the average time spent by the different nematode in the scoring region during the 15 minute interval (control and the conditioned water) were calculated.

[2] = Stability of ascr#2 and ascr#3 in agar plates (LC-MS); format: physicochemical; conditions: agar plates with 200 nM stored at room temperature for three months; extract in 1 ml methanol
Protocol: Agar plates (total volume: 20 ml) prepared from Nobel agar and S-media containing ascr#2 and ascr#3 at a concentration of 200 nM were stored at room temperature for three months and subsequently lyophilized. The residue was powdered using a mortar and extracted with ethanol. The extract was evaporated to dryness, redissolved in 1 ml of methanol, and analyzed via LC-MS, using an Agilent 1100 HPLC system equipped with a 10×250 mm Supelco 5μ ODS preparative column eluted at a flow rate of 3.4 ml/min, and a Micromass Quattro II triple-quadrupole mass spectrometer operated in positive-electrospray ionization mode. A solvent gradient was used starting with a solvent composition of 5% methanol and 95% water, which was maintained for three minutes and then progressed linearly to 100% methanol by 40 minutes, resulting in retention times of 21.3 min (ascr#3) and 25.6 min (ascr#2).

[3] = tested on: Male C. elegans; test: Reversal frequency of males on ascaroside agar plates (automated nematode tracker); format: in vivo, Caenorhabditis elegans
Protocol: Given the nature of the attraction assay, the exact concentration of the compounds tested in the scoring region is not well defined. […] A system used to track the sinusoidal movement of nematodes is disclosed in Cronin et al., 2005. BMC Genet. 6:5 and incorporated herein by reference.
For the tracker assays, standard nematode growth medium was prepared and added the different ascarosides to the required concentrations into the agar. Plates containing the ascarosides were then allowed to cool and stored at 20° C. overnight. Control plates were treated the same way except that instead of the ascaroside, an equivalent quantity of 100% ethanol was added to the agar. Assay plates were seeded with a thin lawn of an overnight grown E. coli OP50 culture and allowed to dry overnight. 10-15 L4 males were picked 14-16 hours before the experiment on E. coli OP50 seeded plates. For each assay, individual males were picked and placed on assay plates. After 5 minutes, males were assayed for 15 min using the automated tracker to get the different locomotion parameters. For each concentration of ascaroside, an equal number of males were tested on control plates. After the recordings, nematodes were processed using automated tracker software and the results were analyzed using in-house matlab scripts.

Row | SMILES | activity in the attraction assay ([1]; single ascaroside) | concentration in the agar extract [2] | increase of reversal frequency ([3]; ascaroside in agar, FIG. 6B) | male attraction activity, each ascaroside tested individually at physiological concentrations ([1]; FIG. 4) | male attraction when assayed individually [1] | shape of dose-response curve ([1]; single ascaroside) | male attraction activity at higher concentrations ([1]; single ascaroside) | time spent in spotted region relative to control region (maximum) ([1]; single ascaroside, FIG. 4) | lowest concentration that increases reversal frequency ([3]; ascaroside in agar, FIG. 6A) | male attractant concentration lower than required for dauer induction ([3]; comparison with dauer induction) | rank of male attraction response among single ascarosides ([1]; single ascaroside, FIG. 4)
1 | CC(=O)CC[C@@H](C)O[C@@H]1O[C@@H](C)[C@H](O)C[C@H]1O[C@@H]1O[C@H](CO)[C@@H](O)[C@H](O)[C@H]1O [ASCR #4, 5R-(3′-O-[β-D-glucosyl]-tetrahydro-3′R,5′R-dihydroxy-6′S-methyl-2H-pyran-2′R-yloxy)-2-hexanone] | not active | – | – | – | – | – | – | – | – | – | –
2 | C[C@H](CCCCC(=O)O)O[C@@H]1O[C@@H](C)[C@H](O)C[C@H]1O [ASCR #1, 6R-(Tetrahydro-3′R,5′R-dihydroxy-6′S-methyl-2H-pyran-2′R-yloxy)-heptanoic acid] | not active | – | – | – | – | – | – | – | – | – | –
3 | CC(=O)CC[C@@H](C)O[C@@H]1O[C@@H](C)[C@H](O)C[C@H]1O [ASCR #2, 5R-(Tetrahydro-3′R,5′R-dihydroxy-6′S-methyl-2H-pyran-2′R-yloxy)-2-hexanone] | – | 3.5 µM | only weak increases | not active | did not elicit significant male attraction | strongly biphasic activity profile | active | ~2.8 fold | – | – | –
4 | C[C@H](CCCC/C=C/C(=O)O)O[C@@H]1O[C@@H](C)[C@H](O)C[C@H]1O [ASCR #3, 8R-(Tetrahydro-3′R,5′R-dihydroxy-6′S-methyl-2H-pyran-2′R-yloxy)-2E-nonenoic acid] | – | 3.2 µM | – | not active | did not elicit significant male attraction | strongly biphasic activity profile | active | approximately 6.6 fold | 1 pM | more than 10.000 fold | strongest response
